Literature values in patent US20230414606A1 (Lake O'Hara LLC, priority 2022, published 2023).

Experiments:
[1] = previous studies, no patients with BMI>35 kg/m2
CYP3A4 = CYP3A4 (Homo sapiens, UniProt P08684); details: based on the literature, model input
[2] = based on the literature, model input

Sequence of CYP3A4 (P08684 whole entry): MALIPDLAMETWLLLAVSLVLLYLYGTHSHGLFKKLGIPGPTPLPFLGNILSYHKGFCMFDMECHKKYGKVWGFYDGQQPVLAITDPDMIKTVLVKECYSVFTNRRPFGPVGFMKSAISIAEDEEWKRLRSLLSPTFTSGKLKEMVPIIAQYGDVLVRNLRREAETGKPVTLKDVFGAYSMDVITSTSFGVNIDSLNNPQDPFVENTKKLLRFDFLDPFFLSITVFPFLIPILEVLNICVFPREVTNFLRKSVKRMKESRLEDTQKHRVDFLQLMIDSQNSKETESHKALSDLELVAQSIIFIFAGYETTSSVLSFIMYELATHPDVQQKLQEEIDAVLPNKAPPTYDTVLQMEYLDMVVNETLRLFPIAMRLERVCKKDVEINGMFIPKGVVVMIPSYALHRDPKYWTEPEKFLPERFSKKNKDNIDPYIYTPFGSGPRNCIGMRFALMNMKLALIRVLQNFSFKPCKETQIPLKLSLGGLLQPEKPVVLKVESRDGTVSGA

O=c1ccc2ccc(OCCCCN3CCN(c4cccc5sccc45)CC3)cc2[nH]1 [brexpiprazole, 7-14-14-(1-Benzothiophen-4-yl)piperazin-1-yllbutoxylquinolin-2(1H)-one]
decrease of baseline clearance by CYP2D6 PM status (CYP2D6; CYP2D6 PM): ~30% | brexpiprazole clearance due to CYP2D6 (CYP2D6; [2]): 43.3% | brexpiprazole clearance due to other routes [2]: 10% | renal clearance (model assumption, clearance entirely in the liver): ~1% | effect of weight on the pharmacokinetics of brexpiprazole [1]: less than 20% | brexpiprazole clearance due to CYP3A4 (CYP3A4): 46.7%
